The values below come from patent publication US8013156B2 (Exelixis, Inc., priority 2003, dated 2011).

This experiment has as its target Tie-2 (Homo sapiens, UniProt Q02763). As to the kind of experiment: Tie-2 tyrosine kinase activity assay (luciferase/luciferin ATP consumption with pEY substrate, or 33P-ATP incorporation). It counts as biochemical. Conditions: human enzyme Tie-2. The method, then:
One measure of inhibition is Ki. […] The Ki for a compound is determined from the IC50 based on three assumptions. First, only one compound molecule binds to the enzyme and there is no cooperativity. […] Third, the enzymatic rate of the enzyme-inhibitor complex is zero. The rate data (i.e. compound concentration) are fitted to the equation:
[formula] where V is the observed rate, Vmax, is the rate of the free enzyme, I0 is the inhibitor concentration, E0 is the enzyme concentration, and Kd is the dissociation constant of the enzyme-inhibitor complex.
Tyrosine kinase activity is determined by 1) measurement of kinase-dependent ATP consumption by in the presence of a generic substrate such as […], tyrosine (pEY), by luciferase/luciferin-mediated chemiluminescence or; 2) incorporation of radioactive phosphate derived from ^33P-ATP into a generic substrate which has been adsorbed onto the well surface of polystyrene microtiter plates. Phosphorylated substrate products are quantified by scintillation spectrometry.
Inhibition is indicated as IC50 with following key: A=IC50 less than 50 nM, B=IC50 greater than 50 nM, but less than or equal to 1000 nM, C=IC50 greater than 1000 nM, but less than 10,000 nM, D=IC50 10,000 nM or greater, and “-”=no data available. The abbreviation for human enzyme, Tie-2, is defined as tyrosine kinase with immunoglobulin and EGF repeats.

Each structure is given as a SMILES string. Where only a bound is given, the exact number is not on record here.

Sequence of Tie-2 (Q02763 23-1124): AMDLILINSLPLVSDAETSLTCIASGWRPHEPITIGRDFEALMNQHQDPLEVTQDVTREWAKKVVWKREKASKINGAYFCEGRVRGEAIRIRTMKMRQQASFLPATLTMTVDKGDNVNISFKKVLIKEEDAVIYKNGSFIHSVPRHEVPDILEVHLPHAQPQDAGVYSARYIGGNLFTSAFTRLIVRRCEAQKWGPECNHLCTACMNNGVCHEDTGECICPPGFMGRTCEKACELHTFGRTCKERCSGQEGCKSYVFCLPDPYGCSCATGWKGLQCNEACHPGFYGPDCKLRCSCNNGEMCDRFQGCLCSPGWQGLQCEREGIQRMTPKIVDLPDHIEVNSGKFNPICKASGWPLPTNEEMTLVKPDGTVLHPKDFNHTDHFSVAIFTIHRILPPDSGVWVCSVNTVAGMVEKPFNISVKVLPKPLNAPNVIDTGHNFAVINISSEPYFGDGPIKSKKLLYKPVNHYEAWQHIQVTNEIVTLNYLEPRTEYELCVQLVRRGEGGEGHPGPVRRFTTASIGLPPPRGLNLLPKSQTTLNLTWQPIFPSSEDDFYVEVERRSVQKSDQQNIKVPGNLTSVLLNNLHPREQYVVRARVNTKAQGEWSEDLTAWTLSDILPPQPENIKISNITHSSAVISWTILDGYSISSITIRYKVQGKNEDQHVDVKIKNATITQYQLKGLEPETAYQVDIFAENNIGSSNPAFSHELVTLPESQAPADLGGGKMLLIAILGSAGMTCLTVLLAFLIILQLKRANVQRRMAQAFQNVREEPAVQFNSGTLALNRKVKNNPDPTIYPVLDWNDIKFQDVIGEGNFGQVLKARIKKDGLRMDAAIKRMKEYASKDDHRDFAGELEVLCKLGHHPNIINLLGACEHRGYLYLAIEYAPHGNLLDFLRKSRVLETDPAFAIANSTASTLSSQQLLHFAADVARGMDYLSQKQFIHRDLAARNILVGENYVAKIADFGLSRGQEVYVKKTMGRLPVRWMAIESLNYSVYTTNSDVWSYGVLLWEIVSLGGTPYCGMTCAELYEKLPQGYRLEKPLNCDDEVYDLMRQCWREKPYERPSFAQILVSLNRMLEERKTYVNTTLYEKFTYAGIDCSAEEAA

`O=C(Nc1cc(C(F)(F)F)cc(C(F)(F)F)c1)N1CCN(c2nsnc2OCc2ccncc2)CC1` [Example 2]: the IC50 is below 50 nM. With `O=C(Nc1cccc(Br)c1)N1CCN(c2nsnc2OCc2ccncc2)CC1` [Example 5] the figure was 1000 to 10000 nM; with `CCc1cccc(NC(=O)N2CCN(c3nsnc3OCc3ccncc3)CC2)c1` [Example 7], 50 to 1000 nM. With `Cc1cc(C)cc(NC(=O)N2CCN(c3nsnc3OCc3ccncc3)CC2)c1` [Example 8] the figure was 50 to 1000 nM; with `O=C(Nc1cccc(C(F)(F)F)c1)N1CCN(c2nsnc2OCc2ccncc2)CC1` [Example 9], 50 to 1000 nM; with `Cc1cc(COc2nsnc2N2CCN(C(=O)Nc3cc(C(F)(F)F)cc(C(F)(F)F)c3)CC2)c2ccccc2n1` [Example 10], at least 10000 nM. In the case of `CN(C)c1cccc(COc2nsnc2N2CCN(C(=O)Nc3cc(C(F)(F)F)cc(C(F)(F)F)c3)CC2)c1` [Example 11, N-[3,5-bis(trifluoromethyl)phenyl]-4-[4-({[3-(dimethylamino)phenyl]methyl}oxy)-1,2,5-thiadiazol-3-yl]piperazine-1-carboxamide], the IC50 is at least 10000 nM.

The molecule `O=C(Nc1cc(C(F)(F)F)cc(C(F)(F)F)c1)N1CCN(c2nsnc2Oc2ccc3[nH]ccc3c2)CC1` [Example 12] had an IC50 of 50 to 1000 nM. For `O=C(Nc1cc(C(F)(F)F)cc(C(F)(F)F)c1)N1CCN(c2nsnc2OCc2ccsc2)CC1` [Example 13], the IC50 is at least 10000 nM. With `O=C(Nc1cc(C(F)(F)F)cc(C(F)(F)F)c1)N1CCN(c2nsnc2OCCN2CCOCC2)CC1` [Example 14] the figure was at least 10000 nM; with `COc1ccc(COc2nsnc2N2CCN(C(=O)Nc3cc(C(F)(F)F)cc(C(F)(F)F)c3)CC2)cc1` [Example 17], at least 10000 nM. `O=C(Nc1cc(C(F)(F)F)cc(C(F)(F)F)c1)N1CCN(c2nsnc2OCc2ccoc2)CC1` [Example 20] registered an IC50 of at least 10000 nM. The same measure for `CC1CN(c2nsnc2OCc2ccncc2)CCN1C(=O)Nc1cc(C(F)(F)F)cc(C(F)(F)F)c1` (stereo not shown) [Example 22]: 50 to 1000 nM. With `O=C(Nc1cc(C(F)(F)F)cc(C(F)(F)F)c1)N1CCCN(c2nsnc2OCc2ccncc2)CC1` [Example 23] the figure was 50 to 1000 nM. The molecule `CC(C)[C@H]1CC[C@H](C)C[C@@H]1OCC(=O)N1CCN(c2nsnc2OCc2ccncc2)CC1` [Example 24] returned an IC50 of 1000 to 10000 nM. Take `O=C(NCC1CCN(c2nsnc2OCc2ccncc2)CC1)Nc1cc(C(F)(F)F)cc(C(F)(F)F)c1` [Example 28]: the IC50 is 50 to 1000 nM. `O=C(Nc1cc(C(F)(F)F)cc(C(F)(F)F)c1)N1CCN(c2nsnc2OCCCc2cccnc2)CC1` [Example 29, N-[3,5-bis(trifluoromethyl)phenyl]-4-{4-[(3-pyridin-3-ylpropyl)oxy]-1,2,5-thiadiazol-3-yl}piperazine-1-carboxamide] showed an IC50 of 1000 to 10000 nM. The same measure for `O=C(O)c1ccc(COc2nsnc2N2CCN(C(=O)Nc3cc(C(F)(F)F)cc(C(F)(F)F)c3)CC2)cc1` [Example 32, 4-[({4-[4-({[3,5-bis(trifluoromethyl)phenyl]amino}carbonyl)piperazin-1-yl]-1,2,5-thiadiazol-3-yl}oxy)methyl]benzoic acid]: 1000 to 10000 nM; for `O=C(Nc1cc(C(F)(F)F)cc(C(F)(F)F)c1)C1CCN(c2nsnc2OCc2ccncc2)CC1` [Example 36, N-[3,5-bis(trifluoromethyl)phenyl]-1-{4-[(pyridin-4-ylmethyl)oxy]-1,2,5-thiadiazol-3-yl}piperidine-4-carboxamide]: 50 to 1000 nM; for `O=C(Nc1cccc(C(F)(F)F)c1)C1CCN(c2nsnc2OCc2ccncc2)CC1` [Example 37, 1-{4-[(pyridin-4-ylmethyl)oxy]-1,2,5-thiadiazol-3-yl}-N-[3-(trifluoromethyl)phenyl]piperidine-4-carboxamide]: 50 to 1000 nM.

Molecule `O=C(Nc1cc(C(F)(F)F)cc(C(F)(F)F)c1)N1CCN(c2nccnc2OCc2ccncc2)CC1` [Example 38, N-[3,5-bis(trifluoromethyl)phenyl]-4-{3-[(pyridin-4-ylmethyl)oxy]pyrazin-2-yl}piperazine-1-carboxamide] came in with an IC50 below 50 nM. The same measure for `O=C(Nc1cccc(C(F)(F)F)c1)N1CCN(c2nccnc2OCc2ccncc2)CC1` [Example 39, 4-{3-[(pyridin-4-ylmethyl)oxy]pyrazin-2-yl}-N-[3-(trifluoromethyl)phenyl]piperazine-1-carboxamide]: below 50 nM; for `CC1CN(c2nsnc2OCc2ccncc2)CCN1C(=O)Nc1cccc(C(F)(F)F)c1` (stereo not shown) [Example 41, 2-methyl-4-{4-[(pyridin-4-ylmethyl)oxy]-1,2,5-thiadiazol-3-yl}-N-[3-(trifluoromethyl)phenyl]piperazine-1-carboxamide]: 50 to 1000 nM. The same measure for `O=C(Nc1cc(C(F)(F)F)cc(C(F)(F)F)c1)N1CCN(c2nsnc2NCc2ccncc2)CC1` [Example 44, N-[3,5-bis(trifluoromethyl)phenyl]-4-{4-[(pyridin-4-ylmethyl)amino]-1,2,5-thiadiazol-3-yl}piperazine-1-carboxamide]: 1000 to 10000 nM; for `O=C(Nc1cccc(C(F)(F)F)c1)N1CCCN(c2nsnc2OCc2ccncc2)CC1` [Example 45, 4-{4-[(pyridin-4-ylmethyl)oxy]-1,2,5-thiadiazol-3-yl}-N-[3-(trifluoromethyl)phenyl]-1,4-diazepane-1-carboxamide]: 1000 to 10000 nM. With `O=C(Nc1cccc(C(F)(F)F)c1)NC1CCN(c2nsnc2OCc2ccncc2)C1` (stereo not shown) [Example 49, N-(1-{4-[(pyridin-4-ylmethyl)oxy]-1,2,5-thiadiazol-3-yl}pyrrolidin-3-yl)-N′-[3-(trifluoromethyl)phenyl]urea] the figure was 1000 to 10000 nM; with `CC(C)c1ccc(NC(=O)N2CCN(c3nsnc3OCc3ccncc3)CC2C)cc1` (stereo not shown) [Example 50, 2-methyl-N-[4-(1-methylethyl)phenyl]-4-{4-[(pyridin-4-ylmethyl)oxy]-1,2,5-thiadiazol-3-yl}piperazine-1-carboxamide], 1000 to 10000 nM; with `CSc1cccc(NC(=O)N2CCN(c3nsnc3OCc3ccncc3)CC2C)c1` (stereo not shown) [Example 51, 2-methyl-N-[3-(methylthio)phenyl]-4-{4-[(pyridin-4-ylmethyl)oxy]-1,2,5-thiadiazol-3-yl}piperazine-1-carboxamide], 50 to 1000 nM.

As for `C[C@@H]1CN(c2nsnc2OCc2ccncc2)CCN1C(=O)Nc1cc(C(F)(F)F)cc(C(F)(F)F)c1` [Example 52, (2R)-N-[3,5-bis(trifluoromethyl)phenyl]-2-methyl-4-{4-[(pyridin-4-ylmethyl)oxy]-1,2,5-thiadiazol-3-yl}piperazine-1-carboxamide], the IC50 was 50 to 1000 nM. The same measure for `C[C@@H]1CN(c2nsnc2OCc2ccncc2)CCN1C(=O)Nc1cccc(C(F)(F)F)c1` [Example 53, (2R)-2-methyl-4-{4-[(pyridin-4-ylmethyl)oxy]-1,2,5-thiadiazol-3-yl}-N-[3-(trifluoromethyl)phenyl]piperazine-1-carboxamide]: 50 to 1000 nM; for `C[C@H]1CN(c2nsnc2OCc2ccncc2)CCN1C(=O)Nc1cc(C(F)(F)F)cc(C(F)(F)F)c1` [Example 57, (2S)-N-[3,5-bis(trifluoromethyl)phenyl]-2-methyl-4-{4-[(pyridin-4-ylmethyl)oxy]-1,2,5-thiadiazol-3-yl}piperazine-1-carboxamide]: 50 to 1000 nM.

What is called IC50 is the point on the concentration scale where inhibition reaches its midpoint. A high value points to weaker potency in that assay.
